Experimental data from paper PMC9035832, “Synthesis and Evaluation of a Non-Peptide Small-Molecule Drug Conjugate Targeting Integrin αVβ3” (Frontiers in Chemistry, 2022).
Read-outs that look alike come from different tables or passages of the source.

Columns and labels:
integrin αVβ3 = target: T1, integrin αVβ3 (Homo sapiens, UniProt P05106+P06756); experiment: ELISA-like competitive integrin binding assay (vitronectin-coated plates)
T1 construct: using the isolated extracellular domain of integrins αVβ3 and α5β1; purchased Sino Biological
Protocol: (§1) An ELISA-like assay using the isolated extracellular domain of integrins αVβ3 and α5β1 was performed in flat-bottom 96-well immuno plates (Brand) to determine the activities of the synthesized compounds. All wells were coated overnight with the native integrin ligand vitronectin or fibronectin (1) (Table 1) in a carbonate buffer (150 µl/well), followed by washing of each well with the PBS-T buffer (3 × 200 µl/well) (Table 1) and blocking for 1 h with the TS-B buffer (150 µl/well) at RT. […] The protein-coated assay plate was washed with the PBS-T buffer (3 × 200 µl/well), and 50 µl of the dilution series was transferred to the assay plate wells B–G. The TS-B buffer was filled into row A (100 µl/well) as the negative control and row H (50 µl/well) as the positive control. Afterward, the corresponding human integrin (2, 50 µl/well) (Table 1) in the TS-B buffer was added to row B–H and incubated for 1 h at RT. After washing the assay plate with the PBS-T buffer (3 × 200 µl/well), the primary antibody (3, 100 µl/well) (Table 1) was transferred to each well and incubated for 1 h at RT. Then the plate was washed with the PBS-T buffer (3 × 200 µl/well), treated with the secondary antibody (4, 100 µl/well) (Table 1), and incubated for 1 h at RT. The plate was washed with the PBS-T buffer (3 × 200 µl/well), and SeramunBlau® fast2 (Seramun Diagnostics GmbH, 50 µl/well) was added to each well. Staining was stopped with 3 M aq. […] The absorbance was measured with a plate reader at 450 nm and corrected by subtraction of the absorbance at 620 nm. Afterward, the resulting values were plotted and analyzed using OriginPro® 2020b where the inflection point of a DoseResp fit describes the IC50 value. All compounds were tested in duplicates or triplicates for both integrins.
(§2) The affinities (Table 4) of the RGD mimetics (Table 3) toward the integrins αVβ3 and α5β1 were determined in a competitive enzyme-linked immunosorbent assay (ELISA) using recombinant human integrins with the native ligands vitronectin and fibronectin as described in the literature ([Mas-Moruno et al., 2016b]). […]
(§3) Table S1: Proteins and buffers applied in the ELISA-like assay.
(§4) An ELISA-like assay using the isolated extracellular domain of integrins αVβ3 and α5β1 was performed in flat-bottom 96-well immuno plates (Brand) to determine the activities of the synthesised compounds.
(§5) All wells were coated overnight with the native integrin ligand vitronectin or fibronectin (Table S1, (1)) in carbonate buffer (150 µL/well), followed by washing of each well with PBS-T buffer (3×200 µL/well) (Table S1) and blocking for 1 h with TS-B buffer (150 µL/well) at RT. A dilution […]
(§6) 1:10 dilution) in TS-B buffer. The protein-coated assay plate was washed with PBS-T buffer (3×200 µL/well) and 50 µL of the dilution series was transferred to the assay plate wells B-G. TS-B buffer was filled into row A (100 µL/well) as negative control and row H (50 µL/well) as positive control. Afterwards, the corresponding human integrin (2, 50 µL/well)) (Table S1) in TS-B buffer was added to row B-H and incubated for 1 h at RT. After washing the assay plate with PBS-T buffer (3×200 µL/well) the primary antibody (3, 100 µL/well) (Table S1) was transferred to each well and incubated for 1 h at RT. Then the plate was washed with PBS-T buffer (3×200 µL/well), treated with […]

integrin α5β1 = target: T2, integrin α5β1 (Homo sapiens, UniProt P05556+P08648); experiment: ELISA-like competitive integrin binding assay (fibronectin-coated plates)
T2 construct: using the isolated extracellular domain of integrins αVβ3 and α5β1; purchased R&D
Protocol: as §1, §2, §3, §4, §5, §6

[1] = isolated extracellular domain of human integrin αVβ3, ligand vitronectin, Cilengitide as reference on all plates
[2] = isolated extracellular domain of human integrin α5β1, ligand fibronectin, Cilengitide as reference on all plates

Row | Structure (SMILES) | IC50 (integrin αVβ3) [nM] | IC50 (integrin α5β1) [nM] | IC50 (integrin αVβ3; [1]) [nM] | IC50 (integrin α5β1; [2]) [nM]
1 | O=C(N[C@@H](Cc1ccc(OCCCNC2=NCCN2)cc1)C(=O)O)c1ccccc1 [5aa] | 38.5 ± 24.3 | 25.2 ± 7.35 | – | –
2 | O=C(NC(Cc1ccc(OCCCNc2ncccn2)cc1)C(=O)O)c1ccccc1 (stereo not shown) [5ab] | – | – | 1310 | > 10000
3 | O=C(N[C@@H](Cc1ccc(OCCCNC2=NCCCN2)cc1)C(=O)O)c1ccccc1 [5ac] | 18.1 ± 3.68 | 17.4 ± 3.34 | – | –
4 | O=C(N[C@@H](Cc1ccc(OCCCNC2=NCCN2)cc1)C(=O)O)c1ccc(O)cc1 [5ba] | – | – | 38.8 ± 19.2 | 43.4 ± 24.4
5 | O=C(N[C@@H](Cc1ccc(OCCCNc2ncccn2)cc1)C(=O)O)c1ccc(O)cc1 [5bb] | 6530 | > 10000 | – | –
6 | O=C(NC(Cc1ccc(OCCCNC2=NCCCN2)cc1)C(=O)O)c1ccc(O)cc1 (stereo not shown) [5bc] | – | – | 70.4 ± 0.57 | 18.5 ± 3.65
7 | O=C(N[C@@H](Cc1ccc(OCCCNC2=NCCN2)cc1)C(=O)O)c1cccc(O)c1 [5ca] | 9.29 ± 5.77 | 30.5 ± 20.7 | – | –
8 | O=C(N[C@@H](Cc1ccc(OCCCNc2ncccn2)cc1)C(=O)O)c1cccc(O)c1 [5cb] | 7700 | > 10000 | – | –
9 | O=C(N[C@@H](Cc1ccc(OCCCNC2=NCCCN2)cc1)C(=O)O)c1cccc(O)c1 [5cc] | 452 ± 120 | 32.8 ± 11.2 | – | –
10 | O=C(N[C@@H](Cc1ccc(OCCCNC2=NCCN2)cc1)C(=O)O)OCc1ccccc1 [5da] | 1.32 ± 0.11 | 162 ± 36 | – | –
11 | O=C(N[C@@H](Cc1ccc(OCCCNc2ncccn2)cc1)C(=O)O)OCc1ccccc1 [5db] | 237 ± 69.7 | > 10000 | – | –
12 | O=C(N[C@@H](Cc1ccc(OCCCNC2=NCCCN2)cc1)C(=O)O)OCc1ccccc1 [5dc] | 4.68 ± 4.47 | 71.6 ± 16.1 | – | –
13 | O=C(N[C@@H](Cc1ccc(OCCCCNC2=NCCN2)cc1)C(=O)O)c1ccccc1 [6aa] | 25.8 ± 6.77 | 175 ± 73.7 | – | –
14 | O=C(N[C@@H](Cc1ccc(OCCCCNc2ncccn2)cc1)C(=O)O)c1ccccc1 [6ab] | 6170 | > 10000 | – | –
15 | O=C(NC(Cc1ccc(OCCCCNC2=NCCCN2)cc1)C(=O)O)c1ccccc1 (stereo not shown) [6ac] | – | – | 32.8 ± 17.6 | 17.5 ± 6.76
16 | O=C(N[C@@H](Cc1ccc(OCCCCNC2=NCCN2)cc1)C(=O)O)c1ccc(O)cc1 [6ba] | 1900 ± 175 | 35.2 ± 18.4 | – | –
17 | O=C(NC(Cc1ccc(OCCCCNc2ncccn2)cc1)C(=O)O)c1ccc(O)cc1 (stereo not shown) [6bb] | – | – | 5290 | > 10000
18 | O=C(N[C@@H](Cc1ccc(OCCCCNC2=NCCCN2)cc1)C(=O)O)c1ccc(O)cc1 [6bc] | 38.7 ± 15.5 | 511 ± 183 | – | –
19 | O=C(N[C@@H](Cc1ccc(OCCCCNC2=NCCN2)cc1)C(=O)O)c1cccc(O)c1 [6ca] | – | – | 1.01 ± 0.56 | 19.9 ± 8.7

Row | Structure (SMILES) | IC50 (integrin αVβ3) [nM] | IC50 (integrin α5β1) [nM] | IC50 (integrin αVβ3; [1]) [nM] | IC50 (integrin α5β1; [2]) [nM]
20 | O=C(NC(Cc1ccc(OCCCCNc2ncccn2)cc1)C(=O)O)c1cccc(O)c1 (stereo not shown) [6cb] | – | – | 1850 ± 241 | > 10000
21 | O=C(N[C@@H](Cc1ccc(OCCCCNC2=NCCCN2)cc1)C(=O)O)c1cccc(O)c1 [6cc] | 90.4 ± 31.3 | 107 ± 32 | – | –
22 | O=C(N[C@@H](Cc1ccc(OCCCCNC2=NCCN2)cc1)C(=O)O)OCc1ccccc1 [6da] | 1.2 ± 0.11 | 901 ± 223 | – | –
23 | O=C(N[C@@H](Cc1ccc(OCCCCNC2=NCCCN2)cc1)C(=O)O)OCc1ccccc1 [6dc] | 0.57 ± 0.03 | 745 ± 117 | – | –
24 | O=C(N[C@@H](Cc1ccc(OCCCCCNC2=NCCN2)cc1)C(=O)O)c1ccccc1 [7aa] | 38.5 ± 9.02 | 1690 | – | –
25 | O=C(NC(Cc1ccc(OCCCCCNc2ncccn2)cc1)C(=O)O)c1ccccc1 (stereo not shown) [7ab] | – | – | 8770 | > 10000
26 | O=C(N[C@@H](Cc1ccc(OCCCCCNC2=NCCCN2)cc1)C(=O)O)c1ccccc1 [7ac] | 58.8 ± 14.4 | 2770 | – | –
27 | O=C(NC(Cc1ccc(OCCCCCNC2=NCCN2)cc1)C(=O)O)c1ccc(O)cc1 (stereo not shown) [7ba] | – | – | 2.01 ± 0.4 | 1650
28 | O=C(N[C@@H](Cc1ccc(OCCCCCNc2ncccn2)cc1)C(=O)O)c1ccc(O)cc1 [7bb] | 8840 | > 10000 | – | –
29 | O=C(N[C@@H](Cc1ccc(OCCCCCNC2=NCCCN2)cc1)C(=O)O)c1ccc(O)cc1 [7bc] | 36.4 ± 14.3 | 103 ± 54.4 | – | –
30 | O=C(N[C@@H](Cc1ccc(OCCCCCNC2=NCCN2)cc1)C(=O)O)c1cccc(O)c1 [7ca] | 98.1 ± 74.8 | 6080 | – | –
31 | O=C(NC(Cc1ccc(OCCCCCNc2ncccn2)cc1)C(=O)O)c1cccc(O)c1 (stereo not shown) [7cb] | – | – | 2890 | > 10000
32 | O=C(N[C@@H](Cc1ccc(OCCCCCNC2=NCCCN2)cc1)C(=O)O)c1cccc(O)c1 [7cc] | – | – | 42.9 ± 9.47 | 210 ± 44.8
33 | O=C(N[C@@H](Cc1ccc(OCCCCCNC2=NCCN2)cc1)C(=O)O)OCc1ccccc1 [7da] | 3.76 ± 1.98 | 7750 | – | –
34 | O=C(N[C@@H](Cc1ccc(OCCCCCNc2ncccn2)cc1)C(=O)O)OCc1ccccc1 [7db] | 2630 | 8360 | – | –
35 | O=C(N[C@@H](Cc1ccc(OCCCCCNC2=NCCCN2)cc1)C(=O)O)OCc1ccccc1 [7dc] | 2.93 ± 0.12 | > 10000 | – | –
36 | [N-]=[N+]=NCCOCCOCCOc1ccc(C(=O)N[C@@H](Cc2ccc(OCCCNC3=NCCN3)cc2)C(=O)O)cc1 [10a] | 278 ± 69.2 | 40 ± 6.5 | – | –
37 | [N-]=[N+]=NCCOCCOCCOc1ccc(C(=O)N[C@@H](Cc2ccc(OCCCCNC3=NCCN3)cc2)C(=O)O)cc1 [10b] | 129 ± 2.35 | 404 ± 282 | – | –
38 | [N-]=[N+]=NCCOCCOCCOc1ccc(C(=O)N[C@@H](Cc2ccc(OCCCCCNC3=NCCN3)cc2)C(=O)O)cc1 [10c] | 21 ± 5.84 | 136 ± 27.4 | – | –
